Values of other authors as cited in patent US10538491B2, “4,5-substituted picolinamide and picolinonitrile metabotropic glutamate receptor 2 negative allosteric modulators” (Vanderbilt University, priority 2015, dated 2020).

Key:
[1] = treatment for 7 days; cited from earlier work
[2] = CFS model; cited from earlier work
mice = conditions: cited from earlier work
rat = rat FST, normal animals; cited from earlier work
[3] = system: social isolation reared mice; conditions: cited from earlier work
mouse = mouse TST, normal animals; cited from earlier work
[4] = system: olfactory bulbectomized rats; conditions: repeated administration for 14 days; cited from earlier work

Structure (SMILES): N[C@]1(C(=O)O)[C@H]2[C@@H](C[C@H]1OCc1ccc(Cl)c(Cl)c1)[C@]2(F)C(=O)O [MGS0039]
- number of escape failures [1]: significantly reduced the number of escape failures
- freezing behavior [2]: significantly decreased freezing behavior
- marble-burying behavior (mice): reduced marble-burying behavior
- spontaneous locomotor activity (mice): no significant change
- antidepressant-like effects (rat): Antidepressant-like effects
- immobility in the FST [3]: reversed the increased immobility
- antidepressant-like effects (mouse): Antidepressant-like effects
- hyperactivity in the open field test [4]: attenuated the hyperactivity
- learning deficit in the passive avoidance test [4]: attenuated the learning deficit
